According to patent US4985447A, “Certain benzoquinones, naphthoquinones and derivatives thereof which exhibit thromboxane A2 synthetase inhibition or receptor antagonism and the like” (Takeda Chemical Industries, Ltd., priority 1986, dated 1991):
Like-named read-outs stand apart in the source and are kept apart here.

Experiments:
[1] = system: lipid peroxide in rat brain homogenate; test: Inhibition of production of lipid peroxide in rat brain homogenate; format: biochemical, rat (Sprague-Dawley)
Experimental: Procedure: Sprague-Dawley rats (male, 9-15 weeks old) anesthetized with pentobarbital (50 mg/kg, intraperitoneal administration) were venesected and the brain tissue was resected. The tissue was homogenized in phosphate buffer (pH 7.4), and used as a 5% homogenate (on weight basis). The brain homogenate was allowed to react at 37° C. for 1 hour, and the amount of lipid peroxide produced was determined with the thiobarbituric acid method according to the method of Okawa et al. (Analytical Biochem 95 551, 1979). The drug was added to the 5% homogenate before the reaction at 37° C. for 1 hour so that the final concentration might be 5×10^-7 or 10^-6 M. Inhibition of production of lipid peroxide was expressed as the rate of inhibition in % of the amount produced in the solvent(DMSO)-treated group.

[2] = target: T1, Thromboxane A2 (TXA2) synthetase (Equus caballus, UniProt A0A9L0T8T9); test: Inhibition of Thromboxane A2 (TXA2) synthetase (horse platelet microsome); format: biochemical; conditions: read-out: Inhibition of Thromboxane A2 (TXA2) synthetase
T1 sequence (A0A9L0T8T9 2-534): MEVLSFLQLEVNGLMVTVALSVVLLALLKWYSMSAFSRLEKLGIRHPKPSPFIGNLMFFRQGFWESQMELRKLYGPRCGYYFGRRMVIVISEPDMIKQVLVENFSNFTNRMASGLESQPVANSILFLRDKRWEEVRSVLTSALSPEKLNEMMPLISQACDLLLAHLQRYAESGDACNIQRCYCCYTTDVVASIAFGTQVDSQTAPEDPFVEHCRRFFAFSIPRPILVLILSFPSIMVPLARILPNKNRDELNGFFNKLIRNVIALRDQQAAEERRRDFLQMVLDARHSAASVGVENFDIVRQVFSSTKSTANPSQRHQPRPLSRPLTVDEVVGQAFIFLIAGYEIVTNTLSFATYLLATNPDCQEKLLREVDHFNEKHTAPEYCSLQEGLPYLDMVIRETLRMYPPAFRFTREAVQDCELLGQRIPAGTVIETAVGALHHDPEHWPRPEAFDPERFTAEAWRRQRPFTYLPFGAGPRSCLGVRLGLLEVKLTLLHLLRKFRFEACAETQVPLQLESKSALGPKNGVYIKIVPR
Experimental: Inhibition of Thromboxane A2 (TXA2) synthetase
(§1) As a preparation of TXA2 synthetase, horse platelet microsome treated with indomethacin (indomethacin-treated horse platelet microsome: IPM) according to the method of Needleman et al. (Science 193 163, 1979) was used. To 60 μl of the solution of IPM in 50 mM Tris buffer(pH 7.5) (containing 140 μg on the protein basis), 60μof a solution containing a drug at a variable concentration was added and kept still at room temperature for 5 minutes. One hundred μl of this mixture was taken, to which 20 μl of a buffer containing 30 ng cf prostaglandin H2 (PGH2) with ice-cooling and kept still at 0° C. for 5 minutes to produce thromboxane A2 (TXA2). The reaction was stopped by addition of 500 μl of Tris buffer, and 50 μl of the resultant solution was subjected to radioimmunoassay of thromboxane B2 (TXB2), a stable metabolite of TXA2 [Shibouta et al. Biochem. Pharmacol. 28 3601, 1979]. The rate of inhibition (%) of TXA2 synthetase was determined from the difference in TXB2 productivity between the untreated group and the treated group.
as §1, with “60 μl of” for “60μof”, “of” for “cf”

5-lipoxygenase = target: T2, 5-lipoxygenase (Rattus norvegicus, UniProt P12527); test: Inhibition of 5-lipoxygenase (production of 5-HETE in RBL-1 cells); format: cell-based, rat (RBL-1, rat basophilic leukemia cells); conditions: for inhibition at 1 µM: 10^-6 M; for inhibition at 0.1 µM: 10^-7 M
T2 construct: endogenous in cells; host or cells: RBL-1 cells (rat basophilic leukemia)
T2 sequence (P12527 1-673): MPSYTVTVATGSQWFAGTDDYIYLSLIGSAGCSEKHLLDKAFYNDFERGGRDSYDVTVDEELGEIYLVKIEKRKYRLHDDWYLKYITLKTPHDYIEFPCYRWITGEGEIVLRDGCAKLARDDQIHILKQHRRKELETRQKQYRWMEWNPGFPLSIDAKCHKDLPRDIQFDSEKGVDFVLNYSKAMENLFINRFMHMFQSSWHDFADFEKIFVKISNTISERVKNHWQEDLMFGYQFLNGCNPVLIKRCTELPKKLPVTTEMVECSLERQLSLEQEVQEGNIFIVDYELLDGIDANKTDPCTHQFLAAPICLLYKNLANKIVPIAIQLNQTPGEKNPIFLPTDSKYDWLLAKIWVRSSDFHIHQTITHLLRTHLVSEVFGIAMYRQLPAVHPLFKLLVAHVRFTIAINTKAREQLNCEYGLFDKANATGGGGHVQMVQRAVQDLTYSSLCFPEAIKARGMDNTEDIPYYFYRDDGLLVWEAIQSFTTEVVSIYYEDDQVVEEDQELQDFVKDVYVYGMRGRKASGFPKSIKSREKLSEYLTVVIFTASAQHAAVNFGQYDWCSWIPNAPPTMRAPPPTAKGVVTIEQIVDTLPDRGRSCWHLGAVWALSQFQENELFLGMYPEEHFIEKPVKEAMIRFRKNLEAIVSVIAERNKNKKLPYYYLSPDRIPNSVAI
Experimental: Inhibition of 5-lipoxygenase
10^7 RBL-1 cells (rat basophilic leukemia cells) were suspended in 0.5 ml of MCM (mast cell medium ). To the suspension was subsequently added a solution consisting of 0.5 ml of MCM, 50 μg of arachidonic acid, 10 μg of A-23187 (calcium ionophore, Eli Lilly), and a solution of a quinone compound in ethanol at the final concentration of 1 μM, 0.1 μM, 0.01 μM or 0.001 μM of the test compound was added and allowed to react at 37° C. for 20 minutes. After the reaction, 4 ml of ethanol containing 1,4-dimethoxy-2-methyl-3-(3-methoxypropyl)naphthalene as an internal standard were added, mixed well by shaking, and kept at room temperature for 10 minutes. Then the mixture was centrifuged for 10 minutes (2000 rpm), and the supernatant was separated. The supernatant was concentrated to dryness under reduced pressure. To the concentrate, 0.5 ml of 60% aqueous methanol was added. One hundred μl of this solution was subjected to high performance liquid chromatography for quantitative analysis of 5-HETE (5-hydroxyeicosatetraenoic acid). The amount of 5-HETE was analyzed by measurement of the absorbance at […] with a UV absorption monitor.
Inhibitory effect (IE) of production of 5-HETE is expressed by (1-b/a)×100, wherein a is the peak height or the area corrected with the peak due to the internal standard in the absence of the quinone compound, and b is the peak hight or peak area corrected with the peak due to the internal standard in the presence of the quinone compound.

| SMILES | inhibition at 1 µM (5-lipoxygenase) [%] | inhibition at 0.1 µM (5-lipoxygenase) [%] | inhibition at 1 µM ([2]; 10^-6 M) [%] | inhibition at 0.1 µM ([2]; 10^-7 M) [%] | Inhibition of production of lipid peroxide in rat brain homogenate ([1]; 5 × 10^-7 M) [%] | Inhibition of production of lipid peroxide in rat brain homogenate ([1]; 10^-6 M) [%] | inhibition at 0.1 µM [2] [%] | inhibition at 1 µM [2] [%] |
| --- | --- | --- | --- | --- | --- | --- | --- | --- |
| CC1=C(C)C(=O)C(C(c2ccccc2)c2cccnc2)=C(C)C1=O (centres unmarked) [Compound No. 2, 3,5,6-trimethyl-2-[phenyl-(3-pyridyl)methyl]-1,4-benzoquinone] | 85 | 60 |  |  | 32 | 100 | 45 | 89 |
| CC(=Cc1ccc(C(C2=C(C)C(=O)C(C)=C(C)C2=O)c2cccnc2)cc1)C(=O)O (stereo not drawn) [Compound No. 5, 4-[3,5,6-trimethyl-1,4-benzoquinon-2-yl(3-pyridyl)methyl]-α-methylcinnamic acid] | 73 | 28 | 65 | 7 | 29 | 100 |  |  |
| CCCCC(C1=C(C)C(=O)C(C)=C(C)C1=O)c1cccnc1 (centres unmarked) [Compound No. 7, 2-[1-(3-pyridyl)pentyl]-3,5,6-trimethyl-1,4-benzoquinone] | 86 | 35 | 32 |  | 26 | 100 |  |  |
| CC1=C(C)C(=O)C(Cc2cccnc2)=C(C)C1=O [Compound No. 14] | 92 | 80 | 61 | 35 | 46 | 100 |  |  |
| CCCCCCC(C1=C(C)C(=O)C(C)=C(C)C1=O)c1cccnc1 (centres unmarked) [Compound No. 16, 1-(3,5,6-trimethyl-1,4-benzoquinon-2-yl)-1-(3-pyridyl)heptane] | 96 | 77 | 49 | 6 | 44 | 100 |  |  |
| CC(=O)OCCCCCC(C1=C(C)C(=O)C(C)=C(C)C1=O)c1cccnc1 (centres unmarked) [compound 12] | 91 | 67 | 56 | 22 | 15 | 100 |  |  |
| CCC(C1=C(C)C(=O)C(C)=C(C)C1=O)c1cccnc1 (centres unmarked) [compound 15] | 91 | 57 | 76 | 15 | 52 | 100 |  |  |

Now from value to molecule, other results behind:

| inhibition at 1 µM (5-lipoxygenase) [%] | inhibition at 0.1 µM (5-lipoxygenase) [%] | inhibition at 1 µM ([2]; 10^-6 M) [%] | inhibition at 0.1 µM ([2]; 10^-7 M) [%] | SMILES | Inhibition of production of lipid peroxide in rat brain homogenate ([1]; 5 × 10^-7 M) [%] | Inhibition of production of lipid peroxide in rat brain homogenate ([1]; 10^-6 M) [%] | inhibition at 0.1 µM [2] [%] | inhibition at 1 µM [2] [%] |
| --- | --- | --- | --- | --- | --- | --- | --- | --- |
| 88 | 63 | 37 | 6 | CC1=C(C)C(=O)C(C(CCCCO)c2cccnc2)=C(C)C1=O (centres unmarked) [compound 8] | 20 | 100 |  |  |
| 90 | 62 | 54 | 18 | CC(=O)OCCCCC(C1=C(C)C(=O)C(C)=C(C)C1=O)c1cccnc1 (centres unmarked) [compound 9] | 17 | 100 |  |  |
| 90 | 52 | 67 | 24 | CC1=C(C)C(=O)C(C(CCCCC(=O)O)c2cccnc2)=C(C)C1=O (centres unmarked) [compound 10] | 13 | 100 |  |  |
| 88 | 61 | 67 | 13 | CC1=C(C)C(=O)C(C(CCCCCO)c2cccnc2)=C(C)C1=O (centres unmarked) [compound 11] | 15 | 100 |  |  |
